According to patent US9546194B2, “Aminosteroids for the treatment of a PTP1B associated disease” (Ohr Pharmaceutical Inc., priority 2012, dated 2017):

How the values were obtained:
[1] = target: T1, full length tyrosine phosphatase PTP1B (Homo sapiens, UniProt P18031); test: Inhibition of PTP1B (pNPP hydrolysis, absorbance at 405 nm); type: biochemical; settings: 5 μM aminosteroid analogue; pNPP substrate; read-out: PTP1B % Inhib. at (5 μM)
T1 construct: purchased
T1 sequence (P18031 1-435): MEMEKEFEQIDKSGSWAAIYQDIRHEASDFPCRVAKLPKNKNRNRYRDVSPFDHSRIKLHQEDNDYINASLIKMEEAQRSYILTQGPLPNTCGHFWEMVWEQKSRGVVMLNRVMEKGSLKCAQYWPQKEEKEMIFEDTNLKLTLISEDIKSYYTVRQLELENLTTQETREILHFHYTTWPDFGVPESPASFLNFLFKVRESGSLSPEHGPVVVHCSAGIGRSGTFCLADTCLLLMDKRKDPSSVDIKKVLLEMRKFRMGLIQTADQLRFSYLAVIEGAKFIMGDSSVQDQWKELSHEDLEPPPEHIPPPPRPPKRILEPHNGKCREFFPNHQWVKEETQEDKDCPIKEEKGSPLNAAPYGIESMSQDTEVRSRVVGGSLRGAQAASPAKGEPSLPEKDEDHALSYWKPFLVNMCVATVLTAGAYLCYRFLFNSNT
Experimental: (§1) The aminosteroid analogues were tested for inhibition against the commercially available full length tyrosine phosphatase PTP1B. The ability of each analogue to inhibit the activity of PTP1B was measured in the presence of 5 μM of the aminosteroid analogue. The assay uses para-nitro-phenyl phosphate (pNPP), a non-specific substrate to assess phosphatase activity. Phosphatase activity was based on the ability of PTP1B to catalyze the hydrolysis of pNPP to p-nitrophenol (pNP).

full length TCPTP = target: T2, full length TCPTP (Homo sapiens, UniProt P17706); test: Inhibition of TCPTP (pNPP hydrolysis, same manner as PTP1B assay); type: biochemical; settings: 200 μM inhibitor; pNPP substrate; read-out: TCPTP % Inhib. at (200 μM)
T2 construct: except full length TCPTP was used as the enzyme
T2 sequence (P17706 1-415): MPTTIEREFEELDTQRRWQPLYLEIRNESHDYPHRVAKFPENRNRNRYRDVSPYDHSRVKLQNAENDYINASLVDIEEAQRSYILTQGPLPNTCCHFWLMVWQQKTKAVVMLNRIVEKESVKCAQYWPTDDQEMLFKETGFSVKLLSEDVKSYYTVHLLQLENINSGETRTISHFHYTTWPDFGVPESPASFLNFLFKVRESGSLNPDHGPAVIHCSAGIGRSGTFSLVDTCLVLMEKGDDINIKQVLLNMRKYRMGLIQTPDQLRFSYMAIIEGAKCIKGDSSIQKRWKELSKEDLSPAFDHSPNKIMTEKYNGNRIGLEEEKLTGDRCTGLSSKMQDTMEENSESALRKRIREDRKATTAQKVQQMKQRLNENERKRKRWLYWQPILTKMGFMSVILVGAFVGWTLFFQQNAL
Experimental: as §1
The aminosteroid analogues were also tested for their ability to inhibit the tyrosine phosphatase TCPTP as an indication of their potential toxicity by the inhibition of the immune response. The TCPTP inhibition assay was done in the same manner as the PTP1B assay except full length TCPTP was used as the enzyme and the inhibitor was at a concentration of 200 μM. The results of the TCPTP inhibition assays are shown in Table 1, column 4 and show three compounds that inhibit TCPTP less than 50% even at a […] greater concentration.

ob/ob (Lep^ob) mouse [2] = test: Fasting blood glucose (FBG) in ob/ob mouse; type: in vivo; settings: ob/ob mice; 5 or 10 mg/kg ip every 3 days, 4 doses; study day 14 after overnight fast
Experimental: (§2) To determine in vivo efficacy of the aminosteroid analogues an ob/ob (Lep^ob) mouse model was used. Ob/ob mice are extensively used for screening of antidiabetic and/or anti-obesity agents. Ob/ob mice were treated with either saline or 5 or 10 mg/kg aminosteroid analogue every 3 days for a total of 4 doses via ip injection. Body weight, glucose tolerance and fasting blood glucose levels were measured for each group during the study. Each group had at least an N of 4 animals. All reagents and lab animals are commercially available.
On study day 13, all animal groups were fasted overnight. On study day 14, 25 μL of whole blood was collected and analyzed for the glucose level (mg/dL) using a glucose analyzer.

ob/ob (Lep^ob) mouse [3] = test: Oral glucose tolerance test (OGTT) in ob/ob mouse; type: in vivo; settings: ob/ob mice; for change in vivo: Mus musculus, 336 h, 5 or 10 mg/kg ip every 3 days, 4 doses, OGTT study day 14, 1.5 g/kg oral glucose, 0-120 min, read-out: AbAUC % Change From Saline; for reduction in AbAUC compared to saline control (significance): OGTT study day 14, p<0.05
Experimental: as §2
On study day 14, an oral glucose tolerance test (OGTT) was performed to assess glucose tolerance. At time 0, an oral glucose challenge (1.5 g/kg) was administered by oral gavage. At time points 0, 15, 30, 60, 90, and 120 min post glucose load, 25 μl of whole blood was withdrawn from the tail vein of the animal and the glucose level was measured using a glucose analyzer. The glucose concentration vs time was plotted and the above baseline area under the curve (AbAUC) of the glucose excursion time curve was determined using trapezoidal rule analyses.

[4] = Body weight change in ob/ob mouse; type: in vivo; settings: ob/ob mice; 5 or 10 mg/kg ip every 3 days, 4 doses; % change in body weight vs study day 0, up to 30 days
Experimental: as §2
Starting at study day 0, body weight measurements were taken every day for each group for up to 30 days. Percent change in body weight was calculated as the fractional response of body weight on study day X over the original body weight on study day 0.

SMILES | inhibition at 5 µM [1] | inhibition at 200 µM (full length TCPTP) | FBG % Change From Saline (ob/ob (Lep^ob) mouse [2]) | change in vivo (ob/ob (Lep^ob) mouse [3]) | % BW Nader [4] | reduction in AbAUC compared to saline control (significance) (ob/ob (Lep^ob) mouse [3])
COC(=O)CC[C@@H](C)[C@H]1CCC2C3C[C@@H](O)[C@H]4C[C@H](NCCNC(C)C)CC[C@]4(C)C3CC[C@@]21C (some centres unmarked) [MSI-2514] | 96% | 30% | 9.2% | -11.6% | −1.5% | –
COC(=O)CC[C@@H](C)[C@H]1CCC2C3C(CC[C@@]21C)[C@@]1(C)CC[C@H](NCCNC(C)C)C[C@H]1C[C@H]3O (some centres unmarked) [MSI-2520] | 103% | 19% | 34.7% | -30.1% | 0.5% | significant reduction
COC(=O)CC[C@@H](C)[C@H]1CCC2C3C(CC[C@@]21C)[C@@]1(C)CCC(NCCNC(C)C)C[C@@H]1C[C@H]3NS(C)(=O)=O (some centres unmarked) [MSI-2527] | 102% | 15% | 32.2% | -33% | 0.0% | significant reduction
COC(=O)CC[C@@H](C)[C@H]1CCC2C3C(CC[C@@]21C)[C@@]1(C)CC[C@H](NCCNC(C)C)C[C@@H]1C[C@H]3NC(C)=O (some centres unmarked) [MSI-2532] | 53% | 4% | −0.7% | -56.6% | −0.8% | significant reduction
